Test results from patent publication US20190328712A1 (Treeway TW001 B.V., priority 2017, published 2019).

Key:
[1] = Rate of dissolution of edaravone in water; format: physicochemical; details: in the presence of an alkalizing agent
[2] = Single 60 mg dose of Radicut edaravone solution, oral and i.v. infusion, plasma pharmacokinetics in dogs; format: in vivo; details: male, beagle, dog, iv, i.v. infusion 60 mg (15 min)
Description: The study was conducted in a group of 4 male beagle dogs. […] After a wash-out period of 2 days, the animals received an intravenous infusion of two Radicut® ampoules (15 minutes infusion time).

[3] = rats, oral, 'raw' edaravone suspended with 0.5% CMC-Na, vs 100% intravenous; cited from earlier work
[4] = Single dose, randomized, two-period cross-over study, oral solution 140 mg vs i.v. 60 mg, plasma pharmacokinetics; format: in vivo; details: human
Description: A single dose, randomized, two-period, cross-over study was conducted in 18 healthy male and female human subjects.

[5] = Single 60 mg dose of Radicut edaravone solution, oral and i.v. infusion, plasma pharmacokinetics in dogs; format: in vivo; details: male, beagle, dog; for concentration at […]: 0.25 hrs
[6] = ALS patients, Week 24; cited from earlier work
[7] = both sexes, plasma, iv, i.v. infusion 60 mg (60 minutes)
[8] = both sexes, plasma, iv, i.v. infusion (60 mg, 60 minutes)
[9] = both sexes, plasma, oral administration 140 mg
[10] = both sexes, plasma, oral administration (140 mg)
[11] = iv, i.v. infusion 60 mg (15 min)

rate at which edaravone dissolves in water [1]: increased substantially
Tmax ([2]; 60 mg): 15 min
concentration at 0.083 h ([2]; 0.083 hrs): 3060 ng/mL
concentration at 0.5 h ([2]; 0.5 hrs): 648 ng/mL
concentration at 1 h ([2]; 1 hrs): 140 ng/mL
concentration at 2 h ([2]; 2 hrs): 49 ng/mL
concentration at 4 h ([2]; 4 hrs): 17 ng/mL
concentration at 8 h ([2]; 8 hrs): 6 ng/mL
bioavailability ([4]; both sexes, plasma, oral, 140 mg, oral aqueous solution 140 mg compared to i.v. infusion 60 mg, read-out: systemic / absolute bioavailability (Fabs)): ~80%
AUC(0-inf) [4, 7]: 1300 ng·h/mL
AUC(0-t) [4, 7]: 1290 ng·h/mL
Cmax [4, 7]: 1030 ng/mL
Tmax [4, 7]: 60 min
concentration at 0.17 h [4, 8]: 380 ng/mL
concentration at 0.5 h [4, 8]: 713 ng/mL
concentration at 1 h [4, 8]: 990 ng/mL
concentration at 1.5 h [4, 8]: 321 ng/mL
concentration at 4 h [4, 8]: 42 ng/mL
concentration at 6 h [4, 8]: 14 ng/mL
concentration at 8 h [4, 8]: 8 ng/mL
concentration at 10 h [4, 8]: 5 ng/mL
AUC(0-inf) [4, 9]: 2410 ng·h/mL
AUC(0-t) [4, 9]: 2390 ng·h/mL
Cmax [4, 9]: 2940 ng/mL
concentration at 0.083 h ([4]; both sexes, plasma, oral administration (140 mg), 0.083 hrs): 1200 ng/mL
concentration at 0.17 h [4, 10]: 2360 ng/mL
concentration at […] ([4]; both sexes, plasma, oral administration (140 mg), 0.25 hrs): 2630 ng/mL
concentration at 0.5 h [4, 10]: 1810 ng/mL
concentration at 1 h [4, 10]: 689 ng/mL
concentration at 1.5 h [4, 10]: 354 ng/mL
concentration at 2 h ([4]; both sexes, plasma, oral administration (140 mg), 2 hrs): 203 ng/mL
concentration at 4 h [4, 10]: 68 ng/mL
concentration at 6 h [4, 10]: 24 ng/mL
concentration at 8 h [4, 10]: 13 ng/mL
concentration at 10 h [4, 10]: 9 ng/mL
time to peak maximum concentration after administration ([4]; oral administration 140 mg): about 15 min
bioavailability ([5]; oral 60 mg compared to iv infusion, read-out: systemic bioavailability (Fabs)): 34%
AUC(0-inf) ([5]; oral administration 60 mg): 553 ng·h/mL
AUC(0-t) ([5]; oral administration 60 mg): 542 ng·h/mL
Cmax ([5]; oral administration 60 mg): 2310 ng/mL
concentration at 0.083 h ([5]; oral administration 60 mg, 0.083 hrs): 2310 ng/mL
concentration at 0.17 h ([5]; oral administration 60 mg, 0.17 hrs): 994 ng/mL
concentration at […] ([5]; oral administration 60 mg): 491 ng/mL
concentration at 0.5 h ([5]; oral administration 60 mg, 0.5 hrs): 185 ng/mL
concentration at 1 h ([5]; oral administration 60 mg, 1 hrs): 84 ng/mL
concentration at 1.5 h ([5]; oral administration 60 mg, 1.5 hrs): 51 ng/mL
concentration at 2 h ([5]; oral administration 60 mg, 2 hrs): 36 ng/mL
concentration at 4 h ([5]; oral administration 60 mg, 4 hrs): 11 ng/mL
concentration at 6 h ([5]; oral administration 60 mg, 6 hrs): 5 ng/mL
Tmax ([5]; po, 60 mg, oral administration 60 mg): ~5 min
AUC(0-inf) [5, 11]: 1630 ng·h/mL
AUC(0-t) [5, 11]: 1600 ng·h/mL
Cmax [5, 11]: 4380 ng/mL
concentration at […] [5, 11]: 4380 ng/mL
concentration at 10 h ([5]; iv, i.v. infusion 60 mg (15 min), 10 hrs): 5 ng/mL
Structure (SMILES): CC1=NN(c2ccccc2)C(=O)C1 [edaravone, 3-methyl-1-phenyl-2-pyrazolin-5-one]
absolute bioavailability (Fabs) [3]: 5.23%
decline on a clinical assessment of daily functioning compared to placebo [6]: declined less
